In ChEMBL document CHEMBL4402510, “Caprazamycins: Promising lead structures acting on a novel antibacterial target MraY” (Eur J Med Chem, 2019) one finds IC50, MIC and MIC50 data, which are given here for 18 compounds.

Structures are written as SMILES. ≈ marks a conversion by molar mass, not a printed value.

One may read the IC50 as the point on the concentration scale where inhibition reaches its midpoint. A low value points to greater potency in that assay. The MIC is the least concentration at which growth counts as inhibited. A high value points to weaker potency. The term MIC50 denotes an inhibitory concentration at the 50% level, which refers to growth in some studies and to a panel of isolates in others. Higher therefore signals weaker potency.

For assay [1], the system named is Escherichia coli. The experiment in a line: Antibacterial activity against Escherichia coli expressing MraY. It counts as functional, organism-based.
The test system of a further assay is Mycolicibacterium phlei. The assay is described as follows: Antibacterial activity against Mycobacterium phlei. In kind it is functional.
The subject of assay [2] is Staphylococcus aureus. The experiment in a line: Antibacterial activity against methicillin resistant Staphylococcus aureus No. 5. It counts as functional.
Assay [3] concerns Mycolicibacterium smegmatis. The assay is described as follows: Antibacterial activity against Mycobacterium smegmatis ATCC 607. In kind it is functional.
A further assay deals with Bacillus subtilis. The assay is described as follows: Antibacterial activity against Bacillus subtilis PCI 219. In kind it is functional.
The subject of assay [4] is Mycobacterium tuberculosis. The experiment in a line: Antibacterial activity against Mycobacterium tuberculosis JCM 6384. In kind it is functional.
In assay [5] the test system is Escherichia coli. The assay is described as follows: Antibacterial activity against Escherichia coli K-12. In kind it is functional.
For assay [6], the system named is Mycobacterium avium subsp. paratuberculosis. The assay is described as follows: Antibacterial activity against Mycobacterium avium subsp. paratuberculosis ATCC 43015. In kind it is functional.
Assay [7] deals with Staphylococcus aureus. The assay is described as follows: Antibacterial activity against methicillin resistant Staphylococcus aureus MS16526. It counts as functional.
For assay [8], the system named is Mycobacterium tuberculosis. The assay is described as follows: Antibacterial activity against Mycobacterium tuberculosis H37Rv. In kind it is functional.
For assay [9], the system named is Staphylococcus aureus. The assay is described as follows: Antibacterial activity against Staphylococcus aureus FDA 209P. It counts as functional.
For assay [10], the system named is Mycobacterium tuberculosis. The assay is described as follows: Antibacterial activity against Mycobacterium tuberculosis Kurono. In kind it is functional.
The next assay deals with Mycolicibacterium vaccae. The experiment in a line: Antibacterial activity against Mycobacterium vaccae ATCC 15483. In kind it is functional.
Assay [11] in a line: Antibacterial activity against Mycobacterium avium subsp. avium ATCC 25291. It counts as functional.
For assay [12], the target named is T1, Phospho-N-acetylmuramoyl-pentapeptide-transferase (Aquifex aeolicus (strain VF5), UniProt O66465).
T1 sequence (O66465 whole entry): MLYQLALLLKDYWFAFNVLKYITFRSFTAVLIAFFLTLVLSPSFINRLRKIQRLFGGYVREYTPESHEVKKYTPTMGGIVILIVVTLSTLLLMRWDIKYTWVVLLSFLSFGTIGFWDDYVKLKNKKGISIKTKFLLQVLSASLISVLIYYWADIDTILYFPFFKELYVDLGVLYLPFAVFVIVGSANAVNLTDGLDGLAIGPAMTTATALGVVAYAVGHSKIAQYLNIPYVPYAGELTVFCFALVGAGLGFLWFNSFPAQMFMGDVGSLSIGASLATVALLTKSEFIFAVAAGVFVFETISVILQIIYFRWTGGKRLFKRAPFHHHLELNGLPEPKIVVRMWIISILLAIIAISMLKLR
The assay is described as follows: Inhibition of MraY in Aquifex aeolicus.

Assay [13] deals with Enterococcus faecalis. The experiment in a line: Antibacterial activity against Enterococcus faecalis SR7914 (VRE). In kind it is functional.
The test system of assay [14] is Staphylococcus aureus. The assay is described as follows: Antibacterial activity against methicillin resistant Staphylococcus aureus SR3637. It counts as functional.
The subject of assay [15] is Staphylococcus aureus. The assay is described as follows: Antibacterial activity against methicillin susceptible Staphylococcus aureus ATCC 29213. It counts as functional.
The subject of assay [16] is Enterococcus faecalis. The assay is described as follows: Antibacterial activity against Enterococcus faecalis ATCC 29212. It counts as functional.
Another assay relates to Enterococcus faecium. The assay is described as follows: Antibacterial activity against Enterococcus faecium SR7917 (VRE). In kind it is functional.

`CCCCCCNC[C@H]1O[C@@H](OC[C@H]2O[C@@H](n3ccc(=O)[nH]c3=O)[C@H](O)[C@@H]2O)[C@H](O)[C@@H]1O` came in with a half-maximal inhibitory concentration (IC50) in the assay with Escherichia coli [1] of 130 µM. In turn, `O=CNC[C@H]1O[C@@H](OC[C@H]2O[C@@H](n3ccc(=O)[nH]c3=O)[C@H](O)[C@@H]2O)[C@H](O)[C@@H]1O` came in with an IC50 with Escherichia coli [1] of over 1000 µM. Consider `CCCCCCCOc1ccc(NC(=O)C2=CCN(C)[C@@H]([C@H](O[C@@H]3O[C@H](CN)[C@@H](O)[C@H]3O)[C@H]3O[C@@H](n4ccc(=O)[nH]c4=O)[C@H](O)[C@@H]3O)C(=O)N2C)cc1`, for which the MIC in the assay with Mycolicibacterium phlei was 3.13 µg/mL (≈ 4.19 µM); against Staphylococcus aureus [2], 25 µg/mL (≈ 33.5 µM); in assay [3], 0.78 µg/mL (≈ 1.04 µM); in the assay with Bacillus subtilis, 50 µg/mL (≈ 67 µM); in assay [4], 0.1 µg/mL (≈ 0.134 µM); in the assay on Escherichia coli [5], 3.13 µg/mL (≈ 4.19 µM). In addition, the MIC was 0.2 µg/mL (≈ 0.268 µM) in assay [6]; under 0.2 µg/mL with Staphylococcus aureus [7]; 0.78 µg/mL (≈ 1.04 µM) in assay [8]; 25 µg/mL (≈ 33.5 µM) in the assay on Staphylococcus aureus [9]; 0.78 µg/mL (≈ 1.04 µM) in assay [10]; 6.25 µg/mL (≈ 8.37 µM) in the assay on Mycolicibacterium vaccae. The compound also came in with a minimum inhibitory concentration (MIC) in assay [11] of 0.78 µg/mL (≈ 1.04 µM).

As to `CCCCCCCCCCCCCCCC(=O)O[C@H]1CN(C)[C@@H]([C@@H](C)O[C@@H]2O[C@H](CN)[C@@H](O)[C@H]2O)C(=O)N(C)[C@@H]1C(=O)O`, in the assay with Escherichia coli [1], the MIC50 is over 100 µg/mL. In the assay with Escherichia coli [1], `O=c1ccn([C@@H]2O[C@H](CO[C@@H]3O[C@H](CO)[C@@H](O)[C@H]3O)[C@@H](O)[C@H]2O)c(=O)[nH]1` gave an IC50 of over 1000 µM. The compound `CN(C)C[C@H]1O[C@@H](OC[C@H]2O[C@@H](n3ccc(=O)[nH]c3=O)[C@H](O)[C@@H]2O)[C@H](O)[C@@H]1O` gave an IC50 with Escherichia coli [1] of over 1000 µM. `NC[C@@H]1C[C@@H](O)[C@H](OC[C@H]2O[C@@H](n3ccc(=O)[nH]c3=O)[C@H](O)[C@@H]2O)O1`: the concentration for half-maximal inhibition (IC50) with Escherichia coli [1] was over 1000 µM. `NC[C@H]1O[C@@H](O[C@@H](Cc2cn(CCCCCO)nn2)[C@H]2O[C@@H](n3ccc(=O)[nH]c3=O)[C@H](O)[C@@H]2O)[C@H](O)[C@@H]1O` showed an IC50 in [12] of 400 µM. As to `CCCCCCCCCCCCCCC[C@H](NC(=O)[C@@H](N)CCCNC(=N)N)C(=O)NC[C@@H]1CC[C@H]2C(C(=O)N1)[C@H]([C@H]1O[C@@H](n3ccc(=O)[nH]c3=O)[C@H](O)[C@@H]1O)ON2CCCN` (single isomer, unassigned), the MIC is 16 µg/mL (≈ 18.2 µM) in the assay with Enterococcus faecalis [13]; 32 µg/mL (≈ 36.4 µM) against Staphylococcus aureus [14]; 16 µg/mL (≈ 18.2 µM) with Staphylococcus aureus [15]; 16 µg/mL (≈ 18.2 µM) with Enterococcus faecalis [16]; 8 µg/mL (≈ 9.11 µM) against Enterococcus faecium.

In turn, `CNC[C@H]1O[C@@H](OC[C@H]2O[C@@H](n3ccc(=O)[nH]c3=O)[C@H](O)[C@@H]2O)[C@H](O)[C@@H]1O` showed an IC50 with Escherichia coli [1] of 45 µM. The same measure, in the same setting: the same measure for `CCCNC[C@H]1O[C@@H](OC[C@H]2O[C@@H](n3ccc(=O)[nH]c3=O)[C@H](O)[C@@H]2O)[C@H](O)[C@@H]1O`: 140 µM.

Turning to `N=C(N)NC[C@H]1O[C@@H](OC[C@H]2O[C@@H](n3ccc(=O)[nH]c3=O)[C@H](O)[C@@H]2O)[C@H](O)[C@@H]1O`, the IC50 in the assay on Escherichia coli [1] came out at 25 µM. `NC[C@H]1O[C@@H](O[C@@H](Cn2cc(CCOCCOCCOCCOCCO)nn2)[C@H]2O[C@@H](n3ccc(=O)[nH]c3=O)[C@H](O)[C@@H]2O)[C@H](O)[C@@H]1O`: in [12], the half-inhibitory concentration (IC50) was 450 µM.

`NCCCCCCCCCc1cn(C[C@H](O[C@@H]2O[C@H](CN)[C@@H](O)[C@H]2O)[C@H]2O[C@@H](n3ccc(=O)[nH]c3=O)[C@H](O)[C@@H]2O)nn1`: the IC50 in assay [12] worked out at 250 µM. In turn, `CC(=O)NC[C@H]1O[C@@H](OC[C@H]2O[C@@H](n3ccc(=O)[nH]c3=O)[C@H](O)[C@@H]2O)[C@H](O)[C@@H]1O` had an IC50 in the assay on Escherichia coli [1] of over 1000 µM. In the case of `NC[C@H]1O[C@@H](OC[C@@H]2C[C@@H](O)[C@H](n3ccc(=O)[nH]c3=O)O2)[C@H](O)[C@@H]1O`, half-maximal inhibition in the assay on Escherichia coli [1] (IC50) required 10 µM. In assay [12], `NC[C@H]1O[C@@H](O[C@@H](Cn2cc(CCCCCO)nn2)[C@H]2O[C@@H](n3ccc(=O)[nH]c3=O)[C@H](O)[C@@H]2O)[C@H](O)[C@@H]1O` came in with a half-inhibitory concentration (IC50) of 400 µM. On to `NC[C@H]1O[C@@H](OC[C@@H]2CC[C@H](n3ccc(=O)[nH]c3=O)O2)[C@H](O)[C@@H]1O`, for which, in the assay with Escherichia coli [1], the IC50 came out at 120 µM.
